# Laboratory results as given in PubChem BioAssay (NCI).
#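 The concentration for 50% growth inhibition is given as GI50. TGI is the concentration that stops growth completely.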
# What was measured:
# Assay in all cases: DTP human tumour cell line panel, 384-well format
# SN12C renal = tested on: SN12C renal
# SF-268 CNS = tested on: SF-268 CNS
# RPMI-8226 leukemia = tested on: RPMI-8226 leukemia
# NCI-H522 lung = tested on: NCI-H522 lung
# KM12 colon = tested on: KM12 colon
# SK-MEL-5 melanoma = tested on: SK-MEL-5 melanoma
# U251 glioblastoma = tested on: U251 glioblastoma
# NCI-H322M lung = tested on: NCI-H322M lung
# NCI-H460 NSCLC = tested on: NCI-H460 NSCLC
# HCT-15 colon = tested on: HCT-15 colon
# UACC-257 melanoma = tested on: UACC-257 melanoma
# SF-295 CNS = tested on: SF-295 CNS
# OVCAR-4 ovarian = tested on: OVCAR-4 ovarian
# T-47D breast = tested on: T-47D breast
# DU-145 prostate = tested on: DU-145 prostate
# SK-MEL-2 melanoma = tested on: SK-MEL-2 melanoma
# CCRF-CEM leukemia = tested on: CCRF-CEM leukemia
# M14 melanoma = tested on: M14 melanoma
# HCT-116 colon = tested on: HCT-116 colon
# MDA-MB-231 breast = tested on: MDA-MB-231 breast
# MDA-MB-435 melanoma = tested on: MDA-MB-435 melanoma
# SNB-19 CNS = tested on: SNB-19 CNS
# ACHN renal = tested on: ACHN renal
# BT-549 breast = tested on: BT-549 breast
# NCI/ADR-RES ovarian = tested on: NCI/ADR-RES ovarian
# MOLT-4 leukemia = tested on: MOLT-4 leukemia
# 786-0 renal = tested on: 786-0 renal
# OVCAR-5 ovarian = tested on: OVCAR-5 ovarian
# MALME-3M melanoma = tested on: MALME-3M melanoma
# HL-60(TB) leukemia = tested on: HL-60(TB) leukemia
# HCC-2998 colon = tested on: HCC-2998 colon
# IGROV1 ovarian = tested on: IGROV1 ovarian
# SK-MEL-28 melanoma = tested on: SK-MEL-28 melanoma
# SW-620 colon = tested on: SW-620 colon
# A549 NSCLC = tested on: A549 NSCLC
# CAKI-1 renal = tested on: CAKI-1 renal
# SR leukemia = tested on: SR leukemia
# SF-539 CNS = tested on: SF-539 CNS
# MCF7 breast = tested on: MCF7 breast
# UACC-62 melanoma = tested on: UACC-62 melanoma
# HT29 colon = tested on: HT29 colon
# NCI-H23 lung = tested on: NCI-H23 lung
# A498 renal = tested on: A498 renal
# HOP-62 NSCLC = tested on: HOP-62 NSCLC
# K-562 leukemia = tested on: K-562 leukemia
# MDA-MB-468 breast = tested on: MDA-MB-468 breast
# LOX IMVI melanoma = tested on: LOX IMVI melanoma
# NCI-H226 lung = tested on: NCI-H226 lung
# PC-3 prostate = tested on: PC-3 prostate
# SK-OV-3 ovarian = tested on: SK-OV-3 ovarian
# TK-10 renal = tested on: TK-10 renal
# RXF 393 renal = tested on: RXF 393 renal
# OVCAR-8 ovarian = tested on: OVCAR-8 ovarian
# OVCAR-3 ovarian = tested on: OVCAR-3 ovarian
# COLO 205 colon = tested on: COLO 205 colon
# UO-31 renal = tested on: UO-31 renal
# HOP-92 NSCLC = tested on: HOP-92 NSCLC
structure (smiles),measurement,setting,value
Cn1cc(S(=O)(=O)N2CCC3=Cc4c(cnn4-c4ccc(F)cc4)C[C@]3(C(=O)c3cc(C(F)(F)F)ccn3)C2)cn1,GI50,SN12C renal,> 100 µM
same,TGI,SN12C renal,> 100 µM
same,GI50,SF-268 CNS,> 100 µM
same,TGI,SF-268 CNS,> 100 µM
same,GI50,RPMI-8226 leukemia,0.831 µM
same,TGI,RPMI-8226 leukemia,3.1 µM
same,GI50,NCI-H522 lung,3.19 µM
same,TGI,NCI-H522 lung,81.2 µM
same,GI50,KM12 colon,46.6 µM
same,TGI,KM12 colon,> 100 µM
same,GI50,SK-MEL-5 melanoma,7.3 µM
same,TGI,SK-MEL-5 melanoma,> 100 µM
same,GI50,U251 glioblastoma,15.4 µM
same,TGI,U251 glioblastoma,> 100 µM
same,GI50,NCI-H322M lung,> 100 µM
same,TGI,NCI-H322M lung,> 100 µM
same,GI50,NCI-H460 NSCLC,3.12 µM
same,TGI,NCI-H460 NSCLC,> 100 µM
same,GI50,HCT-15 colon,> 100 µM
same,TGI,HCT-15 colon,> 100 µM
same,GI50,UACC-257 melanoma,7.32 µM
same,TGI,UACC-257 melanoma,> 100 µM
same,GI50,SF-295 CNS,11.5 µM
same,TGI,SF-295 CNS,> 100 µM
same,GI50,OVCAR-4 ovarian,3.97 µM
same,TGI,OVCAR-4 ovarian,> 100 µM
same,GI50,T-47D breast,3.09 µM
same,TGI,T-47D breast,> 100 µM
same,GI50,DU-145 prostate,> 100 µM
same,TGI,DU-145 prostate,> 100 µM
same,GI50,SK-MEL-2 melanoma,42.8 µM
same,TGI,SK-MEL-2 melanoma,> 100 µM
same,GI50,CCRF-CEM leukemia,4.73 µM
same,TGI,CCRF-CEM leukemia,> 100 µM
same,GI50,M14 melanoma,> 100 µM
same,TGI,M14 melanoma,> 100 µM
same,GI50,HCT-116 colon,3.29 µM
same,TGI,HCT-116 colon,> 100 µM
same,GI50,MDA-MB-231 breast,53.3 µM
same,TGI,MDA-MB-231 breast,> 100 µM
same,GI50,MDA-MB-435 melanoma,> 100 µM
same,TGI,MDA-MB-435 melanoma,> 100 µM
same,GI50,SNB-19 CNS,> 100 µM
same,TGI,SNB-19 CNS,> 100 µM
same,GI50,ACHN renal,31.6 µM
same,TGI,ACHN renal,> 100 µM
same,GI50,BT-549 breast,6.96 µM
same,TGI,BT-549 breast,55.7 µM
same,GI50,NCI/ADR-RES ovarian,7.38 µM
same,TGI,NCI/ADR-RES ovarian,> 100 µM
same,GI50,MOLT-4 leukemia,3.09 µM
same,TGI,MOLT-4 leukemia,9.44 µM
same,GI50,786-0 renal,66 µM
same,TGI,786-0 renal,> 100 µM
same,GI50,OVCAR-5 ovarian,> 100 µM
same,TGI,OVCAR-5 ovarian,> 100 µM
same,GI50,MALME-3M melanoma,19.2 µM
same,TGI,MALME-3M melanoma,71.1 µM
same,GI50,HL-60(TB) leukemia,4.66 µM
same,TGI,HL-60(TB) leukemia,12.9 µM
same,GI50,HCC-2998 colon,> 100 µM
same,TGI,HCC-2998 colon,> 100 µM
same,GI50,IGROV1 ovarian,14.1 µM
same,TGI,IGROV1 ovarian,> 100 µM
same,GI50,SK-MEL-28 melanoma,> 100 µM
same,TGI,SK-MEL-28 melanoma,> 100 µM
same,GI50,SW-620 colon,> 100 µM
same,TGI,SW-620 colon,> 100 µM
same,GI50,A549 NSCLC,8.76 µM
same,TGI,A549 NSCLC,> 100 µM
same,GI50,CAKI-1 renal,25.6 µM
same,TGI,CAKI-1 renal,> 100 µM
same,GI50,SR leukemia,1.87 µM
same,TGI,SR leukemia,3.82 µM
same,GI50,SF-539 CNS,54.3 µM
same,TGI,SF-539 CNS,> 100 µM
same,GI50,MCF7 breast,8.88 µM
same,TGI,MCF7 breast,> 100 µM
same,GI50,UACC-62 melanoma,38.6 µM
same,TGI,UACC-62 melanoma,> 100 µM
same,GI50,HT29 colon,> 100 µM
same,TGI,HT29 colon,> 100 µM
same,GI50,NCI-H23 lung,1.34 µM
same,TGI,NCI-H23 lung,4.6 µM
same,GI50,A498 renal,12.5 µM
same,TGI,A498 renal,> 100 µM
same,GI50,HOP-62 NSCLC,5.17 µM
same,TGI,HOP-62 NSCLC,> 100 µM
same,GI50,K-562 leukemia,3.27 µM
same,TGI,K-562 leukemia,> 100 µM
same,GI50,MDA-MB-468 breast,1.84 µM
same,TGI,MDA-MB-468 breast,6.55 µM
same,GI50,LOX IMVI melanoma,49 µM
same,TGI,LOX IMVI melanoma,> 100 µM
same,GI50,NCI-H226 lung,20.3 µM
same,TGI,NCI-H226 lung,> 100 µM
same,GI50,PC-3 prostate,9.49 µM
same,TGI,PC-3 prostate,> 100 µM
same,GI50,SK-OV-3 ovarian,5.8 µM
same,TGI,SK-OV-3 ovarian,> 100 µM
same,GI50,TK-10 renal,78.8 µM
same,TGI,TK-10 renal,> 100 µM
same,GI50,RXF 393 renal,1.98 µM
same,TGI,RXF 393 renal,8.01 µM
same,GI50,OVCAR-8 ovarian,46.8 µM
same,TGI,OVCAR-8 ovarian,> 100 µM
same,GI50,OVCAR-3 ovarian,9.32 µM
same,TGI,OVCAR-3 ovarian,> 100 µM
same,GI50,COLO 205 colon,> 100 µM
same,TGI,COLO 205 colon,> 100 µM
same,GI50,UO-31 renal,11.8 µM
same,TGI,UO-31 renal,> 100 µM
same,GI50,HOP-92 NSCLC,11.8 µM
same,TGI,HOP-92 NSCLC,> 100 µM
